Each structure is given as a SMILES string. Where two headings read alike, the source gives them in different places.

What all share (format): cell-based
The target of test [1] is T1, 25-hydroxyvitamin D3-hydroxylases which attack the C20-27-side chain of vitamin D3 (Homo sapiens, UniProt Q07973).
T1 construct: Confluent human keratinocytes in 1 ml of KGM and in 6-well plates; endogenous in cells; host or cells: normal human epidermal keratinocytes pretreated overnight (16-17 h) with 10 nM calcitriol
T1 sequence (Q07973 36-514): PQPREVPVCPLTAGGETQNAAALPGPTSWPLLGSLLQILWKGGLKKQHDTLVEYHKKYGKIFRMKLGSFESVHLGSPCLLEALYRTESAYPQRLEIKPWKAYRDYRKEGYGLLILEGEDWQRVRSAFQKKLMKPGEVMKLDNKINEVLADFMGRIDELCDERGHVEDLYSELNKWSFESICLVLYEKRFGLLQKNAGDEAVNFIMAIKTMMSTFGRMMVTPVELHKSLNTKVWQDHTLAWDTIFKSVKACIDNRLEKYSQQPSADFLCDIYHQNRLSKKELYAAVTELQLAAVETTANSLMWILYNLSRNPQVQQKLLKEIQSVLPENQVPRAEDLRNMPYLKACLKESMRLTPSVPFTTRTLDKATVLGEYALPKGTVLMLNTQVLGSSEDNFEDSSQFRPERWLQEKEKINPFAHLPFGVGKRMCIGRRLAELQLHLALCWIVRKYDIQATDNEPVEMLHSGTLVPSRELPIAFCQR
Kind of test: Inhibition of side chain metabolism / vitamin D3-hydroxylases attacking the C20-27 side chain in calcitriol-pretreated keratinocytes (test a)). As to conditions: for inhibition of 25-hydroxyvitamin D3-hydroxylases which attack the C20-27 side chain (in words): selectivity versus calcitriol synthesis; for IC50: test a), human keratinocytes, pretreated with 10 nM calcitriol.
Description: This can be determined in confluent cultures of human keratinocytes directly, while for determination of the activity of the hydroxylases attacking the C20-27--side chain a 16 hours pretreatment schedule of the confluent cultures with 1,25(OH)2 D3 (10 nM) has to precede which upregulates these activities (both methods are described in Bikle, D. D. et al., J. Clin. Invest. 78, 557 [1986]).
(§1) a) Selective inhibition of Vitamin D3--hydroxylases:
(§2) Confluent cultures of human keratinocytes in KGM at low calcium (0.06 mM) have a high capacity to produce calcitriol via the 1-hydroxylase, however, activities of sequential metabolism via side chain oxidation are almost entirely lacking. Therefore, the inhibition of the 1-hydroxylase in the confluent cultures is determined directly, and the inhibition of sequential metabolism after up-regulation of the respective hydroxylases, e.g. the 24-hydroxylase, is determined by an overnight (17 hours) pretreatment with 10 nM of calcitriol as described by Bikle et al. (1986) (supra).
(§3) The activities of the 1-hydroxylase and of particular steps in the sequential metabolism [e.g. formation of 1,24,25(OH)3 D3+1,24oxo,25(OH)2 D3] which still retain calcitriol-like activities, the formation of 3-epi calcitriol metabolites, of polar metabolites retained in the water phase and those indicative of side-chain cleavage and their inhibition by the test compounds are determined by following the oxidation of ^3 H-25(OH)D3 (Amersham; specific activity about 0.61 mCi/nmole) as follows:
(§4) Confluent human keratinocytes in 1 ml of KGM and in 6-well plates are incubated in duplicate at 37° with ^3 H-25(OH)D3 for 1 hour (1-hydroxylase), 4 hours (sequential metabolism) and for a range of time interals between 1 and 24 hours, without and after preincubation with 10 nM of calcitriol, and without and with test inhibitory compounds added in a concentration range between 0 and 10 μM. Thereafter, the reaction is stopped with 1 ml of methanol per well, the cells are scraped off, transferred to a test tube together with the supernatant and two washings (with 1 ml of methanol and 0.8 ml of water).

Another test deals with T2, 25(OH)D3-1-hydroxylase (Homo sapiens, UniProt O15528).
T2 construct: Confluent cultures of human keratinocytes in KGM; endogenous in cells; host or cells: normal human epidermal keratinocytes (adult skin from mammary reduction), generally second passage
T2 sequence (O15528 1-508): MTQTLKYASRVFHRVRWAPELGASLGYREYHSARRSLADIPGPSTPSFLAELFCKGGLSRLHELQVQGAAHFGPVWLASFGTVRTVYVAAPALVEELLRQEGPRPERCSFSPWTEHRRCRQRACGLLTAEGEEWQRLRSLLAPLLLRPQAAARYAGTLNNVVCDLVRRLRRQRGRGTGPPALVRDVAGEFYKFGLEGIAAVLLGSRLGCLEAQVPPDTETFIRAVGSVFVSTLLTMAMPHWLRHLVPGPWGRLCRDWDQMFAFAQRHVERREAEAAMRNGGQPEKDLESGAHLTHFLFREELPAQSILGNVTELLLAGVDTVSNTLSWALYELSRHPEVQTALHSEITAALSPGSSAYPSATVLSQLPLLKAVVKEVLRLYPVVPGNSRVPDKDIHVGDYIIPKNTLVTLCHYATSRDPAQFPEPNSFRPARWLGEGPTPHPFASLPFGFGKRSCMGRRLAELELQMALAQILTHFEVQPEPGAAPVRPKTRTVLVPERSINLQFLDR
Description: Inhibition of vitamin D3-1-hydroxylase (oxidation of 3H-25(OH)D3, test a)). The conditions noted are these: for IC50: test a), human keratinocytes, 1 hour, without calcitriol pretreatment.

Another test deals with human keratinocytes. Description: 3H-Thymidine incorporation into human keratinocytes, antiproliferative effects of vitamin D metabolites in the presence of inhibitors (test b)). The conditions noted are these: Keratinocyte; test b). In general terms: Dividing cells build labelled thymidine or BrdU into new DNA.
Setting [2] is: read-out: IC50 for stabilization of 3-epi 1,25(OH)2 D3 levels.
Where [3] appears, read: read-out: IC50 for stabilization of levels of the sum of 1,25(OH)2 D3, 1,24,25(OH)3D3 and 1,24oxo,25(OH)2 D3.
Setting [4] is: in presence of 1α,25(OH)2 D3, read-out: IC50 as regards the concentration required to double the antiproliferative effect of 1α,25(OH)2 D3.
Setting [5] is: in presence of 25(OH)D3, read-out: IC50 as regards the concentration required to double the antiproliferative effect of 25(OH)D3.

Description for 25(OH)D3-1-hydroxylase: Activity of the 1-hydroxylase:
as §1, §2, §3, §4
Description for human keratinocytes: Normal human keratinocytes are isolated from fresh adult skin obtained from mammary reduction and immediately used under sterile conditions. […] These conditions are chosen in order to avoid undefined contributions from vitamin D--metabolites possibly retained in the serum and/or feeder layer. After separation of the epidermis from the dermis with a sterile dermatome the epidermis is incubated in a 0.25% trypsin solution for 45 minutes at 37°. Thereafter the cells are scraped off and put in 50 ml of HBSS containing 10% FCS to block further trypsin digestion and centrifuged at 2000 rpm for 2 minutes. The resulting cell pellet suspended in KGM, a defined serum-free medium at low (0.06 mM) calcium concentration containing 0.1 ng/ml EGF, 5 μg/ml insulin, 0.5 μg/ml hydrocortisone, bovine pituitary extract and antibiotics (gentamycin, amphothericin) gives the primary culture. After 24 hours at 37° in an incubator with carbogen gassing (95% O2 /5% CO2) the unattached cells are removed, the flask washed and provided with fresh KGM. The culture medium is changed then every alternate day and the cells are passaged when they reach 80-90% confluency (usually 6 to 10 days after plating). For passaging old KGM is removed and the attached keratinocytes displaced by a short treatment (5 minutes) with 0.125% of trypsin, then put into HBSS+FCS, centrifuged and eventually resuspended in KGM in such a way that 1 plate of primary culture yields 3 plates first passage cells. In order to expand the final cell number keratinocytes are further cultivated as described above and generally used in their second passage.
^3 H-Thymidine incorporation is measured in 96-well plates as follows: Keratinocytes in 200 μl of KGM at low calcium concentration are plated at an initial density of 10^4 cells per well (second passage) and kept for 24 hours at 37° in an incubator with carbogen gassing (95% O2 /5% CO2). […]
Harvesting is done on a Filtermate 196-Harvester (Packard-Canberra). […] 50 μl of scintillation cocktail (MicroScint O, Packard) are added and ^3 H-activity is counted on a Microplate Scintillation Counter (Topcount, Packard Canberra).
Data are used as means ±SEM (n=3). The IC50 -values for the inhibition of proliferation by the vitamin D--metabolites in the presence of varying concentrations of inhibitors of side chain metabolism and vice versa are assessed by plotting the inverse proliferation rate versus one inhibitor concentration, with the concentration of the other inhibitors kept constant (Dixon Plot). Independent of the mechanism of inhibition the IC50 -values can be read in this plot from the intercept on the x-axis.

Take `O=C(NC[C@H](c1ccccc1)n1ccnc1)c1ccc(-c2ccc(Cl)cc2)cc1` [Example 8, N-[4-(4-Chlorophenyl)benzoyl]-2-(1H-imidazol-1-yl)-2(S)-phenyl-1-aminoethane]: the “inhibition of 25-hydroxyvitamin D3-hydroxylases which attack the C20-27 side chain (in words)” value in test [1] is recorded as “selective inhibitors”. Also, the IC50 is 40 nM in test [1] (setting [2]); 45 nM in test [1] (setting [3]); 530 nM at 25(OH)D3-1-hydroxylase; 30 nM in the test on human keratinocytes (setting [4]); 11 nM in the test on human keratinocytes (setting [5]). Also, the “interference with calcitriol synthesis via the 25(OH)D3-1-hydroxylase (in words)” value at 25(OH)D3-1-hydroxylase is recorded as “without interfering with its synthesis”.
For the molecule `O=C(NC[C@@H](c1ccccc1)n1ccnc1)c1ccc(-c2ccc(Cl)cc2)cc1` [Example 9, N-[4-(4-Chlorophenyl)benzoyl]-2-(1H-imidazol-1-yl)-2(R)-phenyl-1-aminoethane], the “inhibition of 25-hydroxyvitamin D3-hydroxylases which attack the C20-27 side chain (in words)” value in test [1] is on record as “selective inhibitors”. Moreover, the IC50 is 12 nM in test [1] (setting [2]); 19 nM in test [1] (setting [3]); 620 nM at 25(OH)D3-1-hydroxylase; 35 nM with human keratinocytes (setting [4]); 12 nM with human keratinocytes (setting [5]). For the same molecule, the “interference with calcitriol synthesis via the 25(OH)D3-1-hydroxylase (in words)” value on 25(OH)D3-1-hydroxylase is given as “without interfering with its synthesis”.

Source of the values: US5622982A, “Acylated aminoalkanimidazoles and - triazoles” (Sandoz Ltd., priority 1994, dated 1997).
